Values of other authors as cited in publication PMC9395488, “First-in-human study of IM156, a novel potent biguanide oxidative phosphorylation (OXPHOS) inhibitor, in patients with advanced solid tumors” (Investigational New Drugs, 2022).

Columns and labels:
[1] = tested on: patients (pts) with advanced solid tumors; conditions: cited from earlier work
[2] = tested on: A549; parameters: method as in ImmunoMet, 2018; conditions: in A549; ref ImmunoMet, 2018; read-out: OXPHOS inhibition IC50; cited from earlier work
[3] = tested on: OXPHOS; parameters: method as in ImmunoMet, 2018; conditions: at the same concentration; ref ImmunoMet, 2018; cited from earlier work
[4] = tested on: glioblastoma (GSC11); parameters: method as in ImmunoMet, 2018; conditions: glioblastoma animal model, control group 47 days; ref ImmunoMet, 2018; cited from earlier work
[5] = tested on: Glioblastoma cells; parameters: method as in ImmunoMet, 2018; conditions: 15 µM IM156, 500 µM temozolomide, ref ImmunoMet, 2018; cited from earlier work

For `Cc1nc(-c2nc(-c3ccc(OC(F)(F)F)cc3)no2)nn1Cc1cccc(N2CCC(S(C)(=O)=O)CC2)c1` [IACS-010759], the “patients with PR, percent” value [1] is listed as 5%, the “patients with SD” value [1] is listed as 8 patients and the “patients with SD, percent” value [1] is listed as 38%. The “Grade ≥ 3 AEs, percent of patients” value ([1]; human, in vivo) was 43%, the “diarrhea of any grade, percent of patients” value ([1]; human, in vivo) was 10% and the “elevations of blood lactate, percent of patients” value ([1]; human, in vivo) was 71%. For the same compound, the “nausea of any grade, percent of patients” value ([1]; human, in vivo) was 67%, the “vomiting of any grade, percent of patients” value ([1]; human, in vivo) was 29% and the “patients with PR” value ([1]; patient with prostate cancer) was “one”.

For `CN(C)C(=N)N=C(N)N` [metformin, reference compound], the IC50 [2] is listed as ~500 µM.

For `[H]/N=C(/N)N/C(=N/[H])NCCc1ccccc1` [phenformin, reference compound], the “time until OXPHOS inhibition starts to show” value [3] is given as ≥ 6 h.

For `Cn1nnc2c(C(N)=O)ncn2c1=O` [temozolomide, reference compound], the median survival time [4] is given as 58 days and the neurosphere size [5] is given as “decreased”.
